Laboratory results published in patent US20050261129A1, “Method of protecting plants from bacterial and fungal diseases” (priority 2003, published 2005).

Test system: tomato seedlings
Test: Tomato SAR trial, greenhouse foliar vigour (phytotoxicity) ratings (Example 9)
Details: 0, severe foliar injury; 10, foliage green in excellent health; each treatment followed by BONZI 5 ppm
Experimental: Tomatoes were seeded in a green house and the SAR compositions applied three separate times, first as a drench nine days after seeding, the second at the 2-leaf stage 15 days after seeding, and finally as a foliar application in the filed approximately two months from seeding. Each treatment was followed up by a 5 ppm application of a plant growth regulator comprising paclobutrazol available under the name BONZI from Syngenta, Greensboro, N.C. […] This procedure was replicated four times in a randomized complete block design. […] Phytotoxicity ratings were also taken in green house prior to transplanting.

SMILES | Greenhouse Evaluations: Foliar Vigour Ratings (0-10)
CC1(C)CC[C@]2(C(=O)O)CC[C@]3(C)C(=CC[C@@H]4[C@@]5(C)CC[C@H](O)C(C)(C)[C@@H]5CC[C@]43C)[C@@H]2C1 [Sapogenin 3, Oleanolic acid] | 4.7
CC1(C)CC[C@]2(C(=O)O)CC[C@]3(C)C(=CC[C@@H]4[C@@]5(C)CC[C@H](O)[C@@](C)(CO)[C@@H]5CC[C@]43C)[C@@H]2C1 [Sapogenin 2, Hederagenin] | 5.3
CC1(C)CC[C@]2(C(=O)O)CC[C@]3(C)C(=CC[C@@H]4[C@@]5(C)CC[C@H](O)C(C)(C)[C@@H]5CC[C@]43C)[C@@H]2C1 [Sapogenin 6, Oleanolic acid] | 4.3
COC(=O)[C@@]1(C)CC[C@]2(C(=O)O)CC[C@]3(C)C(=CCC4[C@@]5(C)CCC(O)[C@@](C)(CO)C5CC[C@]43C)C2C1 (stereo partly drawn) [Sapogenin 1, Phytolaccagenic acid] | 5.7
CC1(C)CC[C@]2(C(=O)O)CC[C@]3(C)C(=CC[C@@H]4[C@@]5(C)CC[C@H](O)[C@@](C)(CO)[C@@H]5CC[C@]43C)[C@@H]2C1 [Sapogenin 5, Hederagenin] | 4.3
COC(=O)[C@@]1(C)CC[C@]2(C(=O)O)CC[C@]3(C)C(=CCC4[C@@]5(C)CCC(O)[C@@](C)(CO)C5CC[C@]43C)C2C1 (stereo partly drawn) [Sapogenin 4, Phytolaccagenic acid] | 4.3
